Reference: patent US20120021988A1, “METHODS FOR TREATING IMMUNE THROMBOCYTOPENIA” (priority 2007, published 2012)
Several values for one entry are separate records, joined by “and”; a condition that tells them apart may be missing. Equal entries are not always repeated. Ends that are not written are not given here.

Experiments:
FcγIIIa = experiment: FcγR reverse ELISA: inhibition of PAP immune complex binding (Table 2); conditions: PAP/peptide mixture on FcγR coated plates; positive control 1.588
From the text: (§1) For this reason, a “reverse ELISA” technique has been used to assess binding of the Fc region to ligands that bind to immune complexed IgG Fc. In a reverse ELISA, the enzyme (e.g., HRP) is not covalently conjugated to the Fc portion of the secondary antibody. Rather, a preformed immune complex of peroxidase-rabbit (or mouse) anti-peroxidase IgG (“PAP” complex) is used. […] In the reverse ELISA system, an Fc CH2-CH3 cleft binding ligand (e.g., purified human C1q) was bound to microwell plates. In the absence of competitor, PAP complexes bound to the immobilized ligand and the reaction between HRP and its substrate produces a signal. This signal was reduced by polypeptides and compounds that inhibited PAP binding to the immobilized ligand.
(§2) Once the reverse ELISA protocol was established using the C1q assay, the assay was redesigned using FcγIIa, FcγIIb and FcγIII in place of C1q. Highly purified FcγIIa, FcγIIb and FcγIII (R&D Systems, Minneapolis, Minn.) were immunoadsorbed onto plastic microwells. After optimizing the FcγR reverse ELISA system, simple competitive inhibition experiments using polypeptides provided herein were conducted to investigate their ability to inhibit binding of immune complexes to purified FcγR.
(§3) Falcon microtiter plates were coated with 1:10 dilutions of highly purified FcγIIa, FcγIIb and FcγIII and incubated for 24 hours. The plates were washed and then blocked with 5×BSA blocking solution (Alpha Diagnostic International, San Antonio, Tex.) for 24 hours. PAP immune complexes were formed as described in Example 1. PAP (100 μl) were pre-incubated with 100 μl of peptide for one hour. PAP/peptide mixtures were added to the FcγR coated plates and incubated for one hour. After washing, plates were incubated with ABTS substrate (Quidel Corp.) for 15 minutes and read at 405 nm.

FcγIIb = experiment: as above; conditions: PAP/peptide mixture on FcγR coated plates; positive control 1.394
From the text: as §1, §2, §3

FcγIIa (R131 allele) = experiment: as above; conditions: PAP/peptide mixture on FcγR coated plates; positive control 1.599
From the text: as §1, §2, §3

human C1q = experiment: Reverse ELISA: inhibition of PAP immune complex binding to C1q coated plates; conditions: for OD 405 nm: PAP pre-incubated with peptide or C1q one hour, C1q coated plates, lower OD = more inhibition, positive control 2.355
From the text: as §1
PAP complexes were formed mixing 2 μl of rabbit anti-peroxidase (Sigma Chemicals, St. Louis, Mo.; Cat. No. P7899) with 50 μl of peroxidase (Sigma-Aldrich, Cat. No. P6782) in 1 ml distilled water. PAP (100 μl) were pre-incubated with 100 μl of peptide for one hour, 100 μl were pre-incubated with 100 μl of peptide or human C1q (Quidel Corp., San Diego, Calif.) for one hour. The C1q/PAP and peptide/PAP mixtures (100 μl) were incubated with C1q coated plates for 30 minutes. After washing, plates were incubated with ATBS (Quidel Corp.) for 15 minutes and read at 405 nm.

mice having induced ITP = experiment: In vivo treatment of ITP induced by rabbit anti-platelet antibody, platelet counting by flow cytometry; parameters: species or system CD-1 mice; conditions: for Platelet counts, individual mice: intraperitoneal, 24 hours; for Platelet counts, mean: 3 mice, ITP alone mean 170.7, Nil 1016; for Effect on induced ITP: first experiment, Table 4, 10× and 100× molar
Experimental: Mice: CD-1 mice approximately 6-8 weeks of age were obtained from Charles River (Montreal). The animals were housed 3-5 per cage in filter-topped cages. The temperature and relative humidity were maintained at […] and 35-70%, respectively, and a 12 hour light/dark cycle was used. The mice were fed rodent chow and water ad libitum.
Anti-platelet antibodies to induce ITP: A rabbit anti-platelet antibody (Inter-Cell Technologies, Inc., Jupiter, Fla.; Cat. No. A31440) was used to induce ITP. Each mouse received 10 μl antibody-containing serum, diluted with 190 μl PBS for injection, such that the final injection volume was 200 μl for all groups injected with anti-platelet antibody.
On the day of use, one vial of rabbit anti-platelet antibody was removed from the freezer, placed in a 22° C. water bath, and shaken. The tube was checked every 30 seconds, and when it was completely thawed it was placed in a microcentrifuge and centrifuged at 10,000×g (11,000 rpm) for 10 minutes at 4° C. The supernatant fluid was transferred to a new tube and the pellet was discarded. The supernatant was placed on ice until used or diluted, as appropriate. Unused portions of the sera were discarded.
Therapeutic treatment of ITP: IVIg was used as a standard control treatment for the ITP induced by the rabbit anti-platelet antibody. The IVIg was Gamimmune® N, 10%. Treatment with IVIg consisted of an intraperitoneal injection of 50 mg (500 μl) IVIg, a dose that was equivalent to a dose of 2,000 mg/kg body weight.
Platelet enumeration: All mice were bled via the saphenous vein. 50 μL of blood were collected into 450 μL PBS/1% EDTA. The blood was further diluted in PBS/1% EDTA. Platelets were enumerated by flow cytometry with a Guava microcapillary cytometer (Guava EasyCyteMini, Guava Technologies, Inc., Hayward, Calif.), using forward scatter (FSC) versus side scatter (SSC) to gate platelets.
Peptides used to inhibit ITP: Peptides having the amino acid sequences set forth in SEQ ID NO:2 ([…]), SEQ ID NO:20 ([…]), and a control peptide in which Trp7, Val13 and Trp14 of SEQ ID NO:20 were replaced by alanines ([…]; SEQ ID NO:57) were tested for their ability to inhibit ITP. Alanine substation of Val13 and Trp14 causes a decrease in binding affinity (measured by ΔΔG, where G=Gibbs Energy) of greater than 1,000 fold.
Peptides were stored at −20° C. until the day of use. On the day of use, peptides were removed from the freezer, placed in a 22° C. water bath, shaken, and checked every 30 seconds for thawing. When thawed, the peptides were placed on ice until use. For samples that received a 10× dose of peptide, the following were sequentially added to a 1.5 ml polypropylene Eppendorf tube: 623 μl PBS (pH 7.22), 35 μL rabbit anti-plaletet IgG, and 42 μl peptide, with mixing after each addition. For samples having a 100× dose of peptide, the following were added sequentially to a 1.5 ml polypropylene Eppendorf tube: 245 μl PBS (pH 7.22), 35 μL rabbit anti-plaletet IgG, and 420 μl peptide, with mixing after each addition. The peptides were incubated for at least 30 minutes at 22° C. prior to injection into mice. (A 15 minute incubation in the laboratory, transport of the mixtures to the Vivarium, and injection took roughly an additional 30 minutes.)
The final volume of each peptide mixture was 700 μL, which was sufficient for injection of 3 mice (200 μl/mouse, plus 100 μl to cover dead volume). For the 10× dose/mouse of peptide, 12 μg of peptide (12 μl of 1 mg/ml solution) was mixed with 100 μg of the rabbit anti-platelet IgG (10 μl of 10 mg/ml solution). The volume of 700 μl was about 3.5× the volume injected per mouse (200 μl). To obtain the dose of peptide and rabbit IgG for the 700 μl final volume, dose of peptide or Rabbit IgG per mouse was multiplied by 3.5 (e.g., 12 μl peptide/mouse×3.5=42 μl, 10 μl Rabbit IgG/mouse×3.5=35 μl). PBS (623 μl, pH 7.22) was added to make up the final volume 700 μl. […]

[1] = biological target: PAP complex: preformed immune complex of peroxidase and rabbit anti-peroxidase IgG (horseradish) (UniProt P00433); experiment: reverse ELISA competition: PAP pre-incubated with peptide, then on plate coated with FcγIIa (R131 allele); signal is PAP left bound to the receptor
[2] = biological target: PAP complex: preformed immune complex of peroxidase and rabbit anti-peroxidase IgG (horseradish) (UniProt P00433); experiment: reverse ELISA competition: PAP pre-incubated with peptide, then on C1q-coated plate; signal is PAP left bound to immobilised human C1q (lower = more inhibition)
[3] = biological target: PAP complex: preformed immune complex of peroxidase and rabbit anti-peroxidase IgG (horseradish) (UniProt P00433); experiment: reverse ELISA competition: PAP pre-incubated with peptide, then on plate coated with FcγIIb; signal is PAP left bound to the receptor
[4] = biological target: PAP complex: preformed immune complex of peroxidase and rabbit anti-peroxidase IgG (horseradish) (UniProt P00433); experiment: reverse ELISA competition: PAP pre-incubated with peptide, then on plate coated with FcγIIIa; signal is PAP left bound to the receptor
[5] = ITP + 10X molar amount of peptide
[6] = ITP + 100X molar amount of peptide

UniProt P00433, sequence (P00433 31-338, one chain of several): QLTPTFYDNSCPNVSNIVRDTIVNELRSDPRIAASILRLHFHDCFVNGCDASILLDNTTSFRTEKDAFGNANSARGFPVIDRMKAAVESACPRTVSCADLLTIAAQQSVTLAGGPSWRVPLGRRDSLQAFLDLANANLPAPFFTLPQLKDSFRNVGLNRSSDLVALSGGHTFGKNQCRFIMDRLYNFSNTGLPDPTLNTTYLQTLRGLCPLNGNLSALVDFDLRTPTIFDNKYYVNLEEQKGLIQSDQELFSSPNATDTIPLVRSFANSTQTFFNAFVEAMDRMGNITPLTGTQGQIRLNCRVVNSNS

| Molecule | OD405 FcγIIIa (FcγIIIa) | OD405 FcγIIb (FcγIIb) | OD405 FcγIIa (R131 allele) (FcγIIa (R131 allele)) | OD 405 nm (human C1q) | OD405 [1] | OD 405 nm [2] | OD405 [3] | OD405 [4] | further results |
| --- | --- | --- | --- | --- | --- | --- | --- | --- | --- |
| APPCAFHLGELVWCT (cysteine pairing not given here) [SEQ ID NO:18] | 0.880 | 0.380 | 0.605 | 0.983 |  |  |  |  |  |
| Asp-Cys-Ala-Phe-His-Leu-Gly-Glu-Leu-Val-Trp-Cys-Thr (DCAFHLGELVWCT) [SEQ ID NO:3] | 0.810 | 0.510 | 0.660 | 0.859 |  |  |  |  |  |
| APPCAWHLGELVWCT (cysteine pairing not given here) [SEQ ID NO:14] | 0.530 | 0.562 | 0.658 | 1.148 |  |  |  |  |  |
| APPCARHLGELVWCT (cysteine pairing not given here) [SEQ ID NO:16] | 0.709 | 0.768 | 0.956 | 0.567 |  |  |  |  | Inhibition of C1q binding (ranking in words) (human C1q; summary of Table 1): next best result |
| APPDCAAHLGELAACT [SEQ ID NO:57, reference compound] |  |  |  |  |  |  |  |  | Platelet counts, individual mice (mice having induced ITP; ITP + 10X molar amount of peptide, listed as CP): 1.99e+11 L⁻¹ and 1.91e+11 L⁻¹ and 1.43e+11 L⁻¹; Platelet counts, mean (mice having induced ITP; [5]): 1.777e+11 L⁻¹; Platelet counts, individual mice (mice having induced ITP; ITP + 100X molar amount of peptide, listed as CP): 1.55e+11 L⁻¹ and 1.6e+11 L⁻¹ and 1.79e+11 L⁻¹; Platelet counts, mean (mice having induced ITP; [6]): 1.647e+11 L⁻¹; Effect on induced ITP (mice having induced ITP): no effect |
| Asp-Cys-Ala-Trp-His-Leu-Gly-Glu-Leu-Val-Trp-Cys-Thr [SEQ ID NO:2] | 0.741 | 0.532 | 0.561 | 1.100 |  |  |  |  | Platelet counts, individual mice (mice having induced ITP; ITP + 10X molar amount of peptide, listed as BP): 1.63e+11 L⁻¹ and 1.17e+11 L⁻¹ and 2.33e+11 L⁻¹; Platelet counts, mean (mice having induced ITP; [5]): 1.71e+11 L⁻¹; Platelet counts, individual mice (mice having induced ITP; ITP + 100X molar amount of peptide, listed as BP): 1.55e+11 L⁻¹ and 1.25e+11 L⁻¹ and 1.94e+11 L⁻¹; Platelet counts, mean (mice having induced ITP; [6]): 1.58e+11 L⁻¹; Effect on induced ITP (mice having induced ITP): no effect |
| APPCARHLGELVWCT [Peptide … (SEQ ID NO:16)] |  |  |  |  | 0.956 OD405 | 0.567 OD 405 nm | 0.768 OD405 | 0.709 OD405 |  |
| DCAFHLGELVWCT [Peptide … (SEQ ID NO:3)] |  |  |  |  | 0.66 OD405 | 0.859 OD 405 nm | 0.51 OD405 | 0.81 OD405 |  |
| APPCAFHLGELVWCT [Peptide … (SEQ ID NO:18)] |  |  |  |  | 0.605 OD405 | 0.983 OD 405 nm | 0.38 OD405 | 0.88 OD405 |  |
| APPCAWHLGELVWCT [Peptide … (SEQ ID NO:14)] |  |  |  |  | 0.658 OD405 | 1.15 OD 405 nm | 0.562 OD405 | 0.53 OD405 |  |
